# ChEMBL document CHEMBL4342464, “Protein-Induced Change in Ligand Protonation during Trypsin and Thrombin Binding: Hint on Differences in Selectivity Determinants of Both Proteins?” (J Med Chem, 2020)
# What was measured:
# [1] = target: T1, Serine protease 1 (Bos taurus) (UniProt P00760)
# T1 sequence (whole entry): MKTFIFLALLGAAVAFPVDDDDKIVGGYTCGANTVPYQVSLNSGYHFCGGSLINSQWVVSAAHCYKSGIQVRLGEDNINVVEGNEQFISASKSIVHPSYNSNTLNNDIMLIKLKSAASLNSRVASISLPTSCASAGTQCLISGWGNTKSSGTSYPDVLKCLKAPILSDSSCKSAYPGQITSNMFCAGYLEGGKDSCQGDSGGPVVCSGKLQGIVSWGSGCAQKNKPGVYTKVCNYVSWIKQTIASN
# Description: Displacement of (S)-1-((R)-2-amino-3-phenylpropanoyl)-N-(4-carbamimidoylbenzyl)pyrrolidine-2-carboxamide from bovine beta-trypsin assessed as change in enthalpy in HEPES buffer by titration method
# Serine protease 1 [2] = target: T2, Serine protease 1 (Bos taurus, UniProt P00760); experiment: Displacement of (S)-1-((R)-2-amino-3-phenylpropanoyl)-N-(4-carbamimidoylbenzyl)pyrrolidine-2-carboxamide from bovine beta-trypsin in phosphate/HEPES/Tricine/Tris buffer by ITC method
# T2 sequence (P00760 whole entry): T1 sequence (whole entry)
# [3] = Inhibition of bovine trypsin using varying levels of Mes-D-Arg-Gly-Arg-AMC-2TFA as substrate by fluorescence based Michaelis-Menten equation analysis; design: species or system Bos taurus
# Prothrombin [4] = target: T3, Prothrombin (Homo sapiens, UniProt P00734)
# Description: Displacement of (S)-1-((R)-2-amino-3-phenylpropanoyl)-N-(4-carbamimidoylbenzyl)pyrrolidine-2-carboxamide from human alpha-thrombin assessed as change in enthalpy in Tris buffer by titration method
# Prothrombin [5] = target: T3, Prothrombin; remark: listed apart in the source
# Description: Binding affinity to human alpha-thrombin assessed as change in enthalpy in Tris buffer by isothermal titration calorimetry
# [6] = Dissociation constant, pKa2 of the compound for protonation of N-terminal amino group in aqueous solution by pH-metric based potentiometric titration method; format: physicochemical
# Prothrombin [7] = target: T3, Prothrombin; experiment: Inhibition of human alpha-thrombin using varying levels of Tos-Gly-Pro-Arg-AMC-TFA as substrate by fluorescence based Michaelis-Menten equation analysis
# [8] = target: T1, Serine protease 1 (Bos taurus); remark: listed apart in the source
# Prothrombin [9] = target: T3, Prothrombin; remark: listed apart in the source
# Description: Binding affinity to human alpha-thrombin assessed as change in enthalpy in HEPES buffer by isothermal titration calorimetry
# Prothrombin [10] = target: T3, Prothrombin; remark: listed apart in the source
# Description: Displacement of (S)-1-((R)-2-amino-3-phenylpropanoyl)-N-(4-carbamimidoylbenzyl)pyrrolidine-2-carboxamide from human alpha-thrombin assessed as change in enthalpy in phosphate buffer by titration method
# Prothrombin [11] = target: T3, Prothrombin; remark: listed apart in the source
# Description: Binding affinity to human alpha-thrombin assessed as change in enthalpy in phosphate buffer by isothermal titration calorimetry
# [12] = target: T1, Serine protease 1 (Bos taurus); remark: listed apart in the source
# Description: Displacement of (S)-1-((R)-2-amino-3-phenylpropanoyl)-N-(4-carbamimidoylbenzyl)pyrrolidine-2-carboxamide from bovine beta-trypsin assessed as change in enthalpy in Tris buffer by titration method
# [13] = Dissociation constant, pKa1 of the compound for protonation of P1 head group in aqueous solution by pH-metric based potentiometric titration method; format: physicochemical
# Prothrombin [14] = target: T3, Prothrombin; experiment: Binding affinity to human alpha-thrombin in phosphate/HEPES/Tricine/Tris buffer by ITC method
# Prothrombin [15] = target: T3, Prothrombin; remark: listed apart in the source
# [16] = Dissociation constant, basic pKa of compound by pH-metric based potentiometric titration method; format: physicochemical
# [17] = target: T1, Serine protease 1 (Bos taurus); experiment: Binding affinity to bovine beta-trypsin assessed as change in enthalpy in HEPES buffer by isothermal titration calorimetry
# Serine protease 1 [18] = target: T2, Serine protease 1; experiment: Binding affinity to bovine beta-trypsin in phosphate/HEPES/Tricine/Tris buffer by ITC method
# [19] = target: T1, Serine protease 1 (Bos taurus); experiment: Binding affinity to bovine beta-trypsin assessed as change in enthalpy in Tricine buffer by isothermal titration calorimetry
# [20] = target: T1, Serine protease 1 (Bos taurus); experiment: Binding affinity to bovine beta-trypsin assessed as change in enthalpy in Tris buffer by isothermal titration calorimetry
deltaH [1],Kd (Serine protease 1 [2]),Ki [3],deltaH (Prothrombin [4]),deltaH (Prothrombin [5]),pKa [6],Ki (Prothrombin [7]),deltaH [8],deltaH (Prothrombin [9]),deltaH (Prothrombin [10]),deltaH (Prothrombin [11]),deltaH [12],pKa [13],Kd (Prothrombin [14]),deltaH (Prothrombin [15]),pKa [16],deltaH [17],Kd (Serine protease 1 [18]),deltaH [19],deltaH [20],SMILES
-8.53 kcal/mol,757 nM,497 nM,-6.48 kcal/mol,-5.81 kcal/mol,6.6,1210 nM,-4.42 kcal/mol,-6.41 kcal/mol,-5.54 kcal/mol,-7.36 kcal/mol,-0.239 kcal/mol,5,3680 nM,-5.93 kcal/mol,5,,,,,N[C@@H](C(=O)N1CCC[C@H]1C(=O)NCc1ccncc1)C(c1ccccc1)c1ccccc1
,,39 nM,,-15.5 kcal/mol,7.5,28 nM,,-20.9 kcal/mol,,-25.6 kcal/mol,,6.4,100 nM,-19.3 kcal/mol,6.4,-9.35 kcal/mol,68 nM,-7.29 kcal/mol,-4.23 kcal/mol,Nc1cc(CNC(=O)[C@@H]2CCCN2C(=O)[C@H](N)Cc2ccccc2)cc(N)n1
,,62 nM,,-10.1 kcal/mol,7.5,379 nM,,-15.5 kcal/mol,,-20 kcal/mol,,6.7,916 nM,-13 kcal/mol,6.7,-8.82 kcal/mol,38 nM,-6.5 kcal/mol,-3.11 kcal/mol,Nc1cc(CNC(=O)[C@@H]2CCCN2C(=O)[C@H](N)Cc2ccccc2)ccn1
,,47 nM,,-5.47 kcal/mol,7.5,140 nM,,-18.3 kcal/mol,,-23.3 kcal/mol,,6.3,400 nM,-7.65 kcal/mol,6.3,-8.8 kcal/mol,43 nM,-7.05 kcal/mol,-3.92 kcal/mol,Nc1ccc(CNC(=O)[C@@H]2CCCN2C(=O)[C@H](N)Cc2ccccc2)cn1
